Patent publication US10023591B2, “Heterocyclic derivatives and use thereof” (C&C RESEARCH LABORATORIES, priority 2014, dated 2018)

What was measured:
STAT3 = STAT3 reporter gene assay (luciferase), LNCaP stable cell line pSTAT3-TA-luc, IL-6 stimulation; assay type: cell-based, human; conditions: Homo sapiens
Outline: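 LNCaP cells stably carrying pSTAT3-TA-luc were plated 24 h in 3% DCC-FBS medium, then given compound followed by IL-6 (10 ng/mL final) for 24 h at 37 °C. Luciferase was read from lysates, with CellTiter-Glo viability on a duplicate plate. Stimulated 0.1% DMSO wells served as uninhibited control.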

[1] = system: DU-145 prostate cancer cell line; assay: Cell growth inhibition assay, DU-145 (CellTiter-Glo); assay type: cell-based; conditions: Homo sapiens; DU-145, 3,000 cells/well, 96 hours
Procedure: (§1) The inhibitory effects of the compounds of the present invention against the growth of cancer cells were evaluated as shown below. The cancer cell lines including prostate cancer cell lines (LNCaP, DU-145), stomach cancer cell line (NCI-N87), and breast cancer cell lines (MDA-MB-468) were cultured under the protocol provided by each supplier. A medium supplemented with 10 ng/mL of IL-6 was used for LNCaP, a prostate cancer cell line, when treated with a drug. Each type of cells to be used in experiments was sub-cultured in a 96-well plate by counting the exact number of cells using Tali™ Image-based Cytometer (Life Technologies). In a 96-well plate, DU-145 was employed with 3,000 cells/well; NCI-N87 was employed with 5,000 cells/well; and LNCaP and MDA-MB-468 were employed with 10,000 cells/well. The cells were treated with the compounds listed in Examples which were diluted in various concentrations. Upon completion of the compounds treatment, LNCaP, DU-145, NCI-N87 cells were cultured at 37° C. under 5% CO2 for 96 hours, and MDA-MB-468 cells were cultured at 37° C. in air for 96 hours. Subsequently, the cells were observed under microscope and drug precipitation and particular findings were investigated and recorded. And then, the 96-well plate was placed at room temperature for 30 minutes, added with 20 pt/well of CellTiter-Glo solution (Cat No. G7573, Promega) and shaken for 10 minutes, followed by being subjected to the measurement using PHERAstar™ microplate reader (BMG LABTECH) according to the supplier's general luminometer protocol. Wells where only culture liquid added without cell plating were used as a negative control, whereas wells where culture liquid containing 0.1% DMSO instead of the compounds listed in Examples were used as a positive control.

[2] = system: LNCaP prostate cancer cell line; assay: Cell growth inhibition assay, LNCaP (CellTiter-Glo); assay type: cell-based; conditions: Homo sapiens; LNCaP, 10,000 cells/well, medium with 10 ng/mL IL-6, 96 hours
Procedure: as §1

STAT1 = STAT1 reporter gene assay (luciferase), U2OS stable cell line pGL4-STAT1-TA-luc, IFN-γ stimulation; assay type: cell-based, human; conditions: Homo sapiens, IFN-γ 50 ng/mL, 8 hours, read-out: IC50 (μM) pSTAT1
Outline: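 U2OS cells stably carrying a STAT1-driven luciferase reporter were treated with serially diluted compounds plus IFN-γ (50 ng/mL final) for 8 h at 37 °C in 10% FBS medium. Luciferase read after lysis; parallel plate assessed for cytotoxicity by CellTiter-Glo.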

Row | SMILES | IC50 (STAT3) [µM] | IC50 [1] [µM] | IC50 [2] [µM] | IC50 (STAT1) [µM]
1 | CC(C)(c1ccc(Cl)cc1)c1cc(Cl)cc(NC(=O)c2cc3cc(C4(S(C)(=O)=O)CCOCC4)ccc3s2)c1 [Example 34, N-(3-chloro-5-(2-(4-chlorophenyl)propan-2-yl)phenyl)-5-(4-(methylsulfonyl)tetrahydro-2H-pyran-4-yl)benzo[b]thiophene-2-carboxamide] | 8.7 | > 1.1 | > 1.1 | > 50
2 | CC(C)(c1ccc2sc(C(=O)Nc3cc(Cl)cc(Oc4ccc(F)cc4)c3)cc2c1)S(C)(=O)=O [Example 43, N-(3-chloro-5-(4-fluorophenoxy)phenyl)-5-(2-(methylsulfonyl)propan-2-yl)benzo[b]thiophene-2-carboxamide] | 0.023 | 0.011 | 0.032 | > 50
3 | CC(C)(c1ccc2sc(C(=O)Nc3cc(Cl)cc(Oc4ccc(Cl)c(F)c4)c3)cc2c1)S(C)(=O)=O [Example 54, N-(3-chloro-5-(4-chloro-3-fluorophenoxy)phenyl)-5-(2-(methylsulfonyl)propan-2-yl)benzo[b]thiophene-2-carboxamide] | 0.014 | 0.0059 | 0.029 | > 50
4 | CC(C)(c1cc2cc(C(=O)Nc3cc(Cl)cc(Oc4ccc(Cl)cc4)c3)sc2cc1Cl)S(C)(=O)=O [Example 45, 6-chloro-N-(3-chloro-5-(4-chlorophenoxy)phenyl)-5-(2-(methylsulfonyl)propan-2-yl)benzo[b]thiophene-2-carboxamide] | 0.078 | 0.037 | 0.53 | > 50
5 | CC(C)(c1ccc(F)cc1)c1cc(Cl)cc(NC(=O)c2cc3cc(C(C)(C)S(C)(=O)=O)c(F)cc3s2)c1 [Example 19, N-(3-chloro-5-(2-(4-fluorophenyl)propan-2-yl)phenyl)-6-fluoro-5-(2-(methylsulfonyl)propan-2-yl)benzo[b]thiophene-2-carboxamide] | 0.029 | 0.022 | 0.043 | > 50
6 | CC(C)(c1cc(Cl)cc(NC(=O)c2cc3cc(C(C)(C)S(C)(=O)=O)ccc3s2)c1)c1ccc(Cl)s1 [Example 27, N-(3-chloro-5-(2-(5-chlorothiophen-2-yl)propan-2-yl)phenyl)-5-(2-(methylsulfonyl)propan-2-yl)benzo[b]thiophene-2-carboxamide] | 0.075 | 0.024 | 0.029 | > 50
7 | CC(C)(c1ccc2cc(C(=O)Nc3cc(Cl)cc(Oc4ccc(Cl)cc4)c3)sc2c1)S(C)(=O)=O [Example 58, N-(3-chloro-5-(4-chlorophenoxy)phenyl)-6-(2-(methylsulfonyl)propan-2-yl)benzo[b]thiophene-2-carboxamide] | 0.86 | 0.11 | 0.24 | > 50
8 | CC(C)(c1ccc2sc(C(=O)Nc3cc(Cl)cc(Oc4ccc(C(F)(F)F)cc4)c3)cc2c1)S(C)(=O)=O [Example 38, N-(3-chloro-5-(4-(trifluoromethyl)phenoxy)phenyl)-5-(2-(methylsulfonyl)propan-2-yl)benzo[b]thiophene-2-carboxamide] | 0.018 | 0.0053 | 0.0083 | > 50
9 | CS(=O)(=O)C1(c2ccc3sc(C(=O)Nc4cc(Cl)cc(Oc5ccc(Cl)cc5)c4)cc3c2)CCOCC1 [Example 56, N-(3-chloro-5-(4-chlorophenoxy)phenyl)-5-(4-(methylsulfonyl)tetrahydro-2H-pyran-4-yl)benzo[b]thiophene-2-carboxamide] | 3.3 | > 1.1 | > 1.1 | > 50
10 | COc1cc(F)cc(Oc2cc(Cl)cc(NC(=O)c3cc4cc(C(C)(C)S(C)(=O)=O)ccc4s3)c2)c1 [Example 53, N-(3-chloro-5-(3-fluoro-5-methoxyphenoxy)phenyl)-5-(2-(methylsulfonyl)propan-2-yl)benzo[b]thiophene-2-carboxamide] | 0.033 | 0.02 | 0.037 | > 50
